Results on one compound are retold here after US8026236B2, “6-phenyl-1H-imidazo[4,5-c]pyridine-4-carbonitrile derivatives” (N.V. Organon, priority 2009, dated 2011).

The target of the test is recombinant human Cathepsin S (Homo sapiens, UniProt P25774). The test is described as follows: Cathepsin S assay procedure (inhibition of recombinant human Cathepsin S, fluorogenic substrate Z-Val-Val-Arg-AMC). Format: biochemical. The note with it: pH5.5, 20 minutes, read-out: pIC50 (negative logarithm of the IC50 concentration) for inhibition of human cathepsin S (converted). Here is the method:
To a 384 well microtitre plate is added 10 μl of a 1000 solution of test compound in assay buffer (100 mM sodium acetate pH5.5, 5 mM EDTA, 5 mM dithiothreitol) with 10% dimethylsulfoxide (DMSO), plus 200 of 2500 solution of the substrate Z-Val-Val-Arg-AMC (7-amido-coumarine derivative of the tripeptide N-benzyloxy-carbonyl-Val-Val-Arg-OH) in assay buffer and 45 μl of assay buffer. 25 μl of a 2 mg/l solution of activated recombinant human cathepsin S, in assay buffer, is then added to the well, yielding a final inhibitor concentration of 10 μM. Enzyme activity is determined by measuring the fluorescence of the liberated aminomethylcoumarin at […] using 390 nm excitation, at 20 minutes. Percentage enzyme activity is calculated by comparison of this activity to that of a solution containing no inhibitor. Compounds are subsequently subjected to a dose response curve analysis in order to determine IC50 values for active compounds (where IC50 is the concentration of test compound causing 50% inhibition of the enzymatic activity). Compounds of the invention typically have a pIC50 (negative logarithm of the IC50 concentration) for inhibition of human cathepsin S of more than 6. Most compounds of the invention have a pIC50 of more than 7, such as exemplified by the compounds of examples 1a, 1b, 2a, 7d, 12a, 14a, 14b, 14c, 14d, 14e, 14f, 14g, 14h, 14i, 17, 18.

A value given as a limit tells only on which side of the number the result lay.

Sequence of recombinant human Cathepsin S (P25774 115-331): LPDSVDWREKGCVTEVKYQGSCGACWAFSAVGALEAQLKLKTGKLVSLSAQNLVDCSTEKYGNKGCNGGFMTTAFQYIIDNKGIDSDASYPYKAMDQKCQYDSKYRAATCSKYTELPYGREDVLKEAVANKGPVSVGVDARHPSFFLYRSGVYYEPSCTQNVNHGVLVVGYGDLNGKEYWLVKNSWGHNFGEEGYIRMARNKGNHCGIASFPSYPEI

Turning to `CC(=O)Nc1cccc(COc2ccc(-c3cc4c(ncn4C)c(C#N)n3)cc2C(F)(F)F)c1` [Example 17], the IC50 was less than 100 nM.
